What was measured:
NSCLC cell lines = test: NCI five-dose assay, NSCLC subpanel; format: cell-based; details: Homo sapiens
Protocol: (§1) All compounds were subjected to the NCI in vitro disease-oriented human cells screening panel assay. The human tumor cell lines of the cancer-screening panel are grown in RPMI 1640 medium containing 5% fetal bovine serum and 2 mM L-glutamine. For a typical screening experiment, cells are inoculated into 96-well microtiter plates in 100 μL at plating densities ranging from 5000 to 40,000 cells/well depending on the doubling time of individual cell lines. After cell inoculation, the microtiter plates are incubated at 37 °C, 5% CO2, 95% air, and 100% relative humidity for 24 h prior to the addition of experimental drugs. After 24 h, two plates of each cell line are fixed in situ with TCA to represent a measurement of the cell population for each cell line at the time of drug addition. Experimental drugs are solubilized in dimethyl sulfoxide at 400-fold the desired final maximum test concentration and stored frozen prior to use. At the time of drug addition, an aliquot of frozen concentrate is thawed and diluted to twice the desired final maximum test concentration with complete medium containing 50 μg/mL gentamicin. […] Bound stain is subsequently solubilized with a 10 mM trizma base, and the absorbance is read on an automated plate reader at a wavelength of 515 nm. […] Three response parameters (GI50, TGI, and LC50) were calculated for each cell line.

prostate cell lines = test: NCI five-dose assay, prostate subpanel; format: cell-based; details: Homo sapiens
Protocol: as §1

Hs578T = test: NCI five-dose assay, TNBC cell line Hs578T; format: cell-based, human
Protocol: as §1, with “gentamicin. Additional four, 10-fold, or ½ log serial dilutions are made to provide a total of five drug concentrations plus control. Aliquots of 100 μL of these different drug dilutions are added to the appropriate microtiter wells already containing 100 μL of medium, resulting in the required final drug concentrations. Following drug addition, the plates are incubated for an additional 48 h at 37 °C, 5% CO2, 95% air, and 100% relative humidity. For adherent cells, the assay is terminated by the addition of cold TCA. Cells are fixed in situ by the gentle addition of 50 μL of cold 50% (w/v) TCA (final concentration, 10% TCA) and incubated for 60 min at 4 °C.” for “gentamicin.”

MDA-MB-468 = test: NCI five-dose assay, TNBC cell line MDA-MB-468; format: cell-based, human; details: MDA-MB-468, five-dose assay
Protocol: as §1

[1] = system: Ishikawa endometrial adenocarcinoma cell line; test: Alkaline phosphatase (AlkP) activity in Ishikawa cells; format: cell-based, human; details: for Relative alkaline phosphatase activity: 72 h, DMSO set to 1
Protocol: Alkaline phosphatase (AlkP) activity in these human endometrial cancer cells is markedly stimulated by estrogens.
Because of the potential SERM character of the compounds tested, their estrogenic effects were studied in an endometrial-derived cell culture model, the human endometrial adenocarcinoma cell line Ishikawa. […] All compounds were screened at two concentrations, 0.1 and 1 µM. Its agonistic effect was compared to the vehicle control DMSO (data shown in Supplementary Materials). […] The four compounds were studied in a concentration range of 1 nM to 10 µM.
Estrogens stimulate the activity of alkaline phosphatase (AlkP) in Ishikawa cells (human endometrial adenocarcinoma cells; kindly provided by Prof. Masato Nishida, National Hospital Organization, Kasumigaura Medical Center, Japan). This enzyme activity is estimated by using the chromogen substrate (4-nitrophenylphosphate). […] The procedure was modified by Littlefield et al., 1990 [42].
After 72 h incubation, cells were harvested, washed twice with PBS, and incubated at −80 °C for about 30 min to lyse the cells. After thawing, the lysates were resuspended in reaction buffer (274 mM mannitol, 100 mM CAPS, 4 mM MgCl2, pH 10.4) containing 4 mM p-nitrophenylphosphate (NPP). After incubation for 1 h in the dark, AlkP activity was assayed by using the hydrolysis of p-nitrophenylphosphate to p-nitrophenol at pH 10.4 and the spectrometric determination of the kinetic of the product formation at 405 nm. All compounds were tested in technical triplicates and biological triplicates. Statistical analysis was performed by analysis of variance (ANOVA) and Tukey’s post-hoc test with the significance level of p < 0.05.

ovariectomized rats = test: Uterotrophic assay in ovariectomized rats; format: in vivo, rat
Excerpt: Compounds showing appreciable estrogenic activity in the YES assay and that were able to inhibit the growth of MCF-7 cancer cell lines yet with low estrogenic activity on Ishikawa endometrial adenocarcinoma cells might serve as potential ideal SERMS. Compounds 12 and 19 were therefore selected for the in vivo experiments to assess their estrogenic properties in an uterotrophic assay in an ovariectomized rat model. The in vivo uterotrophic rat assay is the gold standard assay to test for the estrogenic effect of compounds; the assay uses adult ovariectomized (OVX) female rats where there is no significant source of endogenous estrogens. Compounds that have estrogenic effects cause uterotrophic response due to the imbibition of water and growth of the uterine cells. Statistically significant uterine weight increases compared to controls provide a positive result. Adopting both in vivo and in vitro assays was inevitable due to the limitations of each assay. The cell lines are not properly able to recapitulate the in vivo environment of the uterus within the body. On the other hand, the rat uterotrophic assay merely considers the uterine weight gain as an endpoint of estrogenicity without taking into account all factors that play a role in exerting an estrogenic effect on the organ and body.
The most common short-term in vivo assay for estrogenicity/anti-estrogenicity is the uterotrophic assay, suitable for screening ERα agonists and antagonists. The primary endpoint is the uterine wet weight (UWW). An increase in UWW indicates an estrogenic activity of the test compound. Compounds 12 and 19 were screened using the in vivo uterotrophic assay.
The most common short-term in vivo assay for (anti)-estrogenicity is the uterine growth test, suitable for screening ERα agonists and antagonists. The primary endpoint is the uterine wet weight (UWW). An increase in UWW indicates an estrogenic activity of the test compound [43]. Sprague Dawley female rats (170–200 g) were obtained from the animal colony of the National Institute of Research (Cairo, Egypt). The rats were housed in a temperature-controlled room (23–24 °C) with a 12 h light:dark cycle and with free access to food and water. They were allowed to acclimatize to the animal house of the German University in Cairo for at least 1 week before initiating the experiments. All efforts were made to minimize animal discomfort and suffering. Animals were ovariectomized. After 14 days of endogenous hormonal decline, the animals were subcutaneously treated for three days with respective compounds. The animals were randomly allocated to treatment and vehicle groups (n = 6). […] The uterus wet weight was determined.

SMILES | GI50 (NSCLC cell lines) [nM] | GI50 (prostate cell lines) [nM] | anti-proliferative activity compared to TAM (Hs578T) | anti-proliferative activity compared to TAM (MDA-MB-468) | Relative alkaline phosphatase activity ([1]; 1 nM) | Relative alkaline phosphatase activity ([1]; 10 nM) | Relative alkaline phosphatase activity ([1]; 100 nM) | Relative alkaline phosphatase activity ([1]; 10 µM) | effect on AlkP activity (in words) ([1]; 72 h treatment, 5-dose assay 1 nM to 10 µM) | uterotrophic effect (in words) (ovariectomized rats; compared to TAM) | Relative uterus wet weight (ovariectomized rats; s.c. 10 mg/kg/d BW for three days) [g/kg BW] | Relative alkaline phosphatase activity ([1]; 1 µM)
CCN(CC)CCOc1ccc(C(=C(C)c2ccc(F)c(OC)c2)c2ccc(Cl)cc2)cc1 [Compound 28, E/Z-(2-{4-[1-(4-Chlorophenyl)-2-(4-fluoro-3-methoxyphenyl)-propenyl]-phenoxy}-ethyl)-diethyl-amine] | 2340 | 2310 | more potent than TAM | equipotent to TAM |  |  |  |  |  |  |  | 
COc1ccc(C(C)=C(c2ccc(Cl)cc2)c2ccc(OCCN3CCCCCC3)cc2)cc1F [Compound 19, E/Z-1-(2-{4-[1-(4-Chlorophenyl)-2-(3-fluoro-4-methoxyphenyl)-propenyl]-phenoxy}-ethyl)-azepane] |  |  | more potent than TAM |  | 1.02 ± 0.13 | 1.06 ± 0.11 | 1.75 ± 0.08 | 0.04 ± 0.04 | increase the AlkP activity in a dose-pendent manner | less increase in UWW | 1.15 ± 0.18 | 
COc1ccc(C(C)=C(c2ccc(Cl)cc2)c2ccc(OCCN3CCCCC3)cc2)cc1F [Compound 17, E/Z-1-(2-{4-[1-(4-Chlorophenyl)-2-(3-fluoro-4-methoxyphenyl)-propenyl]-phenoxy}-ethyl)-piperidine] |  |  | more potent than TAM |  |  |  |  |  |  |  |  | 1.31 ± 0.41
